Data: US10322143B2, “Inhibitors of ADAMTS4 or ADAMTS5 for use in preventing or treating cardiac remodeling and chronic heart failure” (Universitetet i Oslo, priority 2013, dated 2019)

Key:
Assay type in all cases: in vivo, rat
[1] = tested on: ADAMTS5 mRNA; experiment: ADAMTS5 mRNA level (qRT-PCR) in MI rats; conditions: PPS-treatment
Protocol: At day 0 to 3 (median 2) after surgery, infarct size was quantified by echocardiography using the Vevo2100 system (Visualsonics Inc, Canada) and magnetic resonance imaging (MRi) using a 9.4 T/210 mm/ASR horizontal bore magnet (Agilent Technologies, Inc., USA). Initially, echocardiography was performed to select moderate to large infarcts ranging approximately 40 to 50%. Thereafter, infarct sizes were exactly measured by late-enhancement gadolinium MRi analyses (Bohl S., et al. American Journal of Physiology, 2009; 296 (4): H1200-H1208) and stratified into small infarcts (stratum 1: <43%, stratum 2: 43-48%), and large infarcts (stratum 3: 48-53%, stratum 4: >53%). The rats in each MI stratum and sham group were randomized to receive intervention or control treatment. The intervention group was treated with 6 mg/kg of sodium PPS (Interfarm AS, Norway), while the control group received vehicle (0.9% NaCl), both injected subcutaneously every third day starting from post-operative day 8-10.
The mRNA levels of the ADAMTS versicanases ADAMTS1, -4, -5, -8, and -20 (Shiomi T, et al. Pathology International 2010; 60(7):477-96), versican, aggrecan, syndecan-4, tissue inhibitor metalloprotease (TIMP)-3, and membrane-type (MT)4-MMP, were quantified in rat left ventricle by qRT-PCR, as previously described in Example 1.

[2] = tested on: ADAMTS1, -5, -8, versican, aggrecan, HAS-1, HAS-2, TIMP-3 and MT4-MMP mRNA; experiment: Myocardial mRNA expression of other ADAMTS, proteoglycans and modulators (qRT-PCR) in aortic banding rats; conditions: AB-rats, PPS-treatment vs vehicle
Protocol: (§1) Three days after AB, rats were stratified by the gradient over the stenosis to ensure similar degree of cardiac stress. Two and two stratified rats were randomized to either 6 mg/kg of the sulfated polysaccharide sodium pentosan polysulfate (PPS) (Interfarm AS, Norway) or vehicle (0.9% NaCl) injected subcutaneously every third day. […] Six weeks after AB or sham operation, the rats were examined by echocardiography and postmortem analysis, performed by experienced investigators (IS, JMA) blinded to treatment group.
(§2) In addition, mRNA levels of proteins known to modulate ADAMTS activity or versican function were measured; tissue inhibitor of metalloprotease (TIMP)-3, hyaluronic acid (HA) synthase 1 and 2, and membrane-type (MT)4-MMP, while mRNA levels of ADAMTS1, -4, and versican were quantified in NFB and NCM.
(§3) Total RNA was isolated from the left ventricle in AB rats, neonatal rat cardiomyocytes and fibroblasts (RNeasy mini kit, Qiagen, Valencia, Calif.). […] The results were detected on an ABI PRISM 7900 Sequence Detection System (Applied Biosystems, CA).

[3] = tested on: ADAMTS4 mRNA; experiment: Myocardial ADAMTS4 mRNA expression (qRT-PCR) in aortic banding rats; conditions: AB-rats treated with PPS, left ventricle, six weeks after AB; normalized to RPL4, relative to vehicle-treated sham; median (interquartile range)
Protocol: as §1, §2, §3

[4] = tested on: versican; experiment: Versican DPEEAE fragments and full-length versican in myocardial ECM fractions (immunoblotting), aortic banding rats
Protocol: as §1
Proteins from rat myocardium were extracted as previously described (Didangelos et al. J Biol Chem 2012. 287(23):19341-5). Briefly, proteins were separated into three fractions; NaCl-soluble extracellular proteins (NaCl-ECM) and guanidine-soluble extracellular proteins (G-ECM), containing the fluid and matrix compartment of ECM respectively, in addition to cellular and cell-linked proteins dissolvable in SDS (SDS-samples) (FIG. 6D). NaCl-ECM and G-ECM were deglycosylated to remove GAG chains using 4 mU/NaCl-sample and 12 mU/G-sample of Chondroitinase ABC (from Proteus vulgaris, G3667, Sigma-Aldrich, MO) and 5 mU/NaCl-sample and 15 mU/G-sample of keratanase (endo-β-galactosidase from Bacteroides fragilis, G6920, Sigma-Aldrich), as previously described (Didangelos A et al. supra).
Protein concentrations were measured using the Micro BCA Protein Assay Kit (Pierce/Thermo Scientific, IL). Sample buffer was mixed with 5-25 μg (G-samples) or 30 μg (NaCl and SDS samples) of the protein lysate, denatured at 96° C. for 10 min, and run on 1.5 mm 4-12% Bis-Tris gradient gels (Nupage, Invitrogen, CA), with MOPS SDS running buffer until the 37 kDa protein marker reached the bottom of the gel. All protein extracts were loaded blinded to group.
SDS-PAGE and immunoblotting was performed as described in the Criterion BioRad protocol, using polyvinylidene fluoride (PVDF) membranes (GE Healthcare Life Sciences, Uppsala, Sweden). Blots were developed using the ECL Plus Western Blotting Detection System (GE Healthcare) and visualized in the Las-4000 mini from Fujifilm (Japan). Before reprobing, stripping was performed using the Restore Western Blot Stripping Buffer (21059, Thermo Scientific, IL). […]
Membranes were blocked in 5% non-fat dry-milk (170-6404, BioRad) overnight. […] Primary antibodies used were against ADAMTS4 (PA1-1750, Thermo Pierce Scientific, IL), versican full length (sc-25831, Santa Cruz Biotechnology, CA) and versican fragments displaying the neo-epitope DPEEAE (ab19345, Abcam, Cambrigde, UK) resulting from ADAMTS cleavage by ADAMTS1/4 (Sandy J D et al. J Biol Chem 2001. 276(16):13372-8; Didangelos A et al. supra), and quantified by ImageJ.

[5] = PPS-treated AB-rats, normalized to control, median (interquartile range)

Substance: pentosan polysulfate [PPS]
- ADAMTS5 mRNA levels [1]: decreased
- mRNA levels of ADAMTS1, -5, -8, versican, aggrecan, HAS-1, HAS-2, TIMP-3 and MT4-MMP [2]: not affected
- ADAMTS4 mRNA level [3]: 1.29 (1.00-6.45)
- change of p150 versican in NaCl-ECM compared to vehicle-treated AB-rats ([4]; PPS-treated AB-rats vs vehicle-treated AB-rats, p=0.05): halved
- level of full-length versican (p400) in G-ECM [4, 5]: 1.17 (0.77-6.85)
- level of p150 versican DPEEAE fragment in NaCl-ECM [4, 5]: 1.08 (0.69-1.63)
- p70 versican fragment level in G-ECM ([4]; PPS-treated sham, normalized to control, median (interquartile range)): 0.34 (0.28-0.61)
